Experimental data: patent publication US20210085640A1, “ACYLATED CATECHIN POLYPHENOLS AND METHODS OF THEIR USE FOR THE TREATMENT OF CANCER” (Flagship Pioneering Innovations V, Inc., priority 2018, published 2021)

Experiments:
Assay type in all cases: cell-based
[1] = Human Regulatory T Cell Differentiation Assay; details: human, primary naïve CD4+ T cells isolated from PBMCs, read-out: Cell viability % DMSO
Method: (§1) Peripheral blood mononuclear cells (PBMCs) from whole blood donated by health volunteers were separated by Ficoll-Paque gradient centrifugation and naïve CD4^+ T cells were subsequently isolated using magnet beads (EasySep™ Human Naïve CD4^+ T Cell Isolation Kit, Cambridge, Mass.). For regulatory T cell (Treg) differentiation assay, naïve CD4^+ T cells were cultured (1-10×10^4 cells) in CTS OpTmizer medium for 6 days and stimulated with 5 ng/ml TGF-β, 100 U/ml IL-2, and ImmunoCult™ Human […] T Cell Activator; Stemcell #10990) with/without Compounds. Cell viability was determined using a viability dye (eBioscience Fixable Viability Dye eFluor 780: ThermoFisher 65-0865-14) at 1:500 dilution. The cells were gated for Treg, defined as Live, CD11c^−, CD14^−, CD19^−, CD8^−, CD4^+, CD3^+, CD25^+, FOXP3^+. Percent (%) Tregs were calculated as percentage of CD4^+, CD25^+, FOXP3^+ cells over total CD4^+ T cells. Statistical analysis was performed with GraphPad Prism Software Using One-Way ANOVA.

[2] = system: naïve CD4^+ T cells; test: Human Regulatory T Cell Differentiation Assay; details: 6 days
Method: as §1

[3] = system: HCT 116 colorectal cancer cells; test: Cancer cell survival (CellTiter-Glo), HCT 116; details: HCT 116 cells, 72 h
In short: (§2)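 Luminescent ATP read-out (CellTiter-Glo) after 72 h compound exposure at 37 C/5% CO2. Survival % is calculated against untreated cells minus medium background, and IC50 is taken from nine concentrations run in triplicate. Plating density was 4×10^3 cells/well with overnight attachment beforehand.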

[4] = system: A549 lung cancer cells; test: Cancer cell survival (CellTiter-Glo), A549; details: 72 h
In short: as §2

[5] = system: A-431 skin cancer cells; test: Cancer cell survival (CellTiter-Glo), A-431; set-up: Cell survival at given concentration: unit not given here; details: A-431 cells, 72 h
In short: as §2

[6] = system: T24 bladder cancer cells; test: Cancer cell survival (CellTiter-Glo), T24; details: 72 h
In short: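 Viability by CellTiter-Glo after 72 h compound treatment of T24 bladder cancer cells (4×10^3/well, plated the night before), nine concentration levels in triplicate. Percent survival normalised to untreated cells minus medium background, from which IC50 was determined.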

[7] = system: MCF7 breast cancer cells; test: Cancer cell survival (CellTiter-Glo), MCF7; details: 72 h
In short: as §2

[8] = system: AGS stomach cancer cells; test: Cancer cell survival (CellTiter-Glo), AGS; set-up: Cell survival at given concentration: unit not given here
In short: as §2

[9] = system: PC-3 prostate cancer cells; test: Cancer cell survival (CellTiter-Glo), PC-3; details: PC-3 cells, 72 h
In short: as §2

[10] = system: Daudi lymphoma cancer cells; test: Cancer cell survival (CellTiter-Glo), Daudi; details: 72 h
In short: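 Daudi cells (4×10^3/well) were exposed for 72 h at 37 °C to nine concentrations of compound, added as 10× solutions spanning 1 μM–10 mM (fatty acids) or 100 nM–1 mM (others). CellTiter-Glo luminescence gave % survival versus untreated, medium-blank corrected; IC50 derived.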

CCC(=O)O [Propionic acid]
viability at 6 days, 3 mM [1]: 90 to 110%
activity at 3000 µM ([2]; Homo sapiens, CD4+ T, 144 h, 3 mM, read-out: Treg induction % DMSO): > 130%

CN(CCOc1ccc(CC2SC(=O)NC2=O)cc1)c1ccccn1 (stereo not shown) [Rosiglitazone]
viability at 6 days, 10 µM ([1]; 10 uM): 90 to 110%
viability at 6 days, 100 µM [1]: < 90%

CCCC(=O)O [Butyric Acid]
viability at 6 days, 3 mM [1]: < 90%

CC(=O)O [Acetic acid]
viability at 6 days, 1 mM ([1]; 1 mM): 90 to 110%
viability at 6 days, 3 mM [1]: 90 to 110%

O=C(O[C@@H]1Cc2c(O)cc(O)cc2O[C@@H]1c1cc(O)c(O)c(O)c1)c1cc(O)c(O)c(O)c1 [EGCG, epigallocatechin gallate]
Cell survival at given concentration ([3]; 101 nM): 1.05
Cell survival at given concentration ([3]; 318 nM): 0.98
Cell survival at given concentration ([3]; 1 μM): 1.00
Cell survival at given concentration ([3]; 3 μM): 1.03
Cell survival at given concentration ([3]; 10 μM): 1.00
Cell survival at given concentration ([3]; 32 μM): 0.61
Cell survival at given concentration ([3]; 100 μM): 0.25
Cell survival at given concentration ([3]; 316 μM): 0.06
Cell survival at given concentration ([3]; 1000 μM): 0.00
IC50 ([3]; Table 6.1): 46.3 µM
Cell survival at given concentration ([4]; 101 nM): 1.02
Cell survival at given concentration ([4]; 318 nM): 1.05
Cell survival at given concentration ([4]; 1 μM): 1.03
Cell survival at given concentration ([4]; 3 μM): 1.04
Cell survival at given concentration ([4]; 10 μM): 0.99
Cell survival at given concentration ([4]; 32 μM): 0.77
Cell survival at given concentration ([4]; 100 μM): 0.33
Cell survival at given concentration ([4]; 316 μM): 0.21
Cell survival at given concentration ([4]; 1000 μM): 0.01
IC50 ([4]; Table 7.1): 67.4 µM
Cell survival at given concentration ([5]; 101 nM): 1.02
Cell survival at given concentration ([5]; 318 nM): 1.02
Cell survival at given concentration ([5]; 1 μM): 1.02
Cell survival at given concentration ([5]; 3 μM): 1.01
Cell survival at given concentration ([5]; 10 μM): 1.04
Cell survival at given concentration ([5]; 32 μM): 0.78
Cell survival at given concentration ([5]; 100 μM): 0.38
Cell survival at given concentration ([5]; 316 μM): 0.30
Cell survival at given concentration ([5]; 1000 μM): 0.04
IC50 ([5]; Table 9.1): 81.9 µM
Cell survival at given concentration ([6]; 101 nM): 1.00
Cell survival at given concentration ([6]; 318 nM): 0.97
Cell survival at given concentration ([6]; 1 μM): 1.02
Cell survival at given concentration ([6]; 3 μM): 1.01
Cell survival at given concentration ([6]; 10 μM): 0.96
Cell survival at given concentration ([6]; 32 μM): 0.58
Cell survival at given concentration ([6]; 100 μM): 0.15
Cell survival at given concentration ([6]; 316 μM): 0.03
Cell survival at given concentration ([6]; 1000 μM): 0.03
IC50 ([6]; Table 3.1, read-out: 1050): 37.8 µM
Cell survival at given concentration ([7]; 101 nM): 1.01
Cell survival at given concentration ([7]; 318 nM): 0.99
Cell survival at given concentration ([7]; 1 μM): 0.99
Cell survival at given concentration ([7]; 3 μM): 0.97
Cell survival at given concentration ([7]; 10 μM): 0.96
Cell survival at given concentration ([7]; 32 μM): 0.77
Cell survival at given concentration ([7]; 100 μM): 0.55
Cell survival at given concentration ([7]; 316 μM): 0.51
Cell survival at given concentration ([7]; 1000 μM): 0.11
IC50 ([7]; Table 5.1): 231 µM
Cell survival at given concentration ([8]; 101 nM): 1.01
Cell survival at given concentration ([8]; 318 nM): 1.02
Cell survival at given concentration ([8]; 1 μM, Table 10.1): 1.05
Cell survival at given concentration ([8]; 3 μM, Table 10.1): 1.02
Cell survival at given concentration ([8]; 10 μM, Table 10.1): 0.90
Cell survival at given concentration ([8]; 32 μM, Table 10.1): 0.49
Cell survival at given concentration ([8]; 100 μM, Table 10.1): 0.20
Cell survival at given concentration ([8]; 316 μM): 0.08
Cell survival at given concentration ([8]; 1000 μM): 0.00
IC50 ([8]; Table 10.1): 33.2 µM
Cell viability % DMSO ([2]; 100 nM): = (90% ≥ ≤110%: =)
Treg induction % DMSO ([2]; 100 nM): = (90% ≥ ≤110%: =)
Cell viability % DMSO ([2]; 1 uM): = (90% ≥ ≤110%: =)
Treg induction % DMSO ([2]; 1 uM): = (90% ≥ ≤110%: =)
Cell survival at given concentration ([9]; 101 nM): 1.01
Cell survival at given concentration ([9]; 318 nM): 0.99
Cell survival at given concentration ([9]; 1 μM): 1.01
Cell survival at given concentration ([9]; 3 μM): 0.97
Cell survival at given concentration ([9]; 10 μM): 0.99
Cell survival at given concentration ([9]; 32 μM): 0.82
Cell survival at given concentration ([9]; 100 μM): 0.60
Cell survival at given concentration ([9]; 316 μM): 0.51
Cell survival at given concentration ([9]; 1000 μM): 0.10
IC50 ([9]; Table 8.1): 245 µM
Cell survival at given concentration ([10]; 101 nM): 1.03
Cell survival at given concentration ([10]; 318 nM): 1.02
Cell survival at given concentration ([10]; 1 μM): 1.01
Cell survival at given concentration ([10]; 3 μM): 0.97
Cell survival at given concentration ([10]; 10 μM): 0.76
Cell survival at given concentration ([10]; 32 μM): 0.31
Cell survival at given concentration ([10]; 100 μM): 0.17
Cell survival at given concentration ([10]; 316 μM): 0.00
Cell survival at given concentration ([10]; 1000 μM): 0.00
IC50 ([10]; Table 4.1): 20.4 µM

CC[C@H]1[C@@H](O)[C@@H]2[C@H](CC[C@]3(C)[C@@H]([C@H](C)CCC(=O)O)CC[C@@H]23)[C@@]2(C)CC[C@@H](O)C[C@@H]12 [Obeticholic acid]
viability at 6 days, 100 µM [1]: 90 to 110%

C[C@@H](O)CCO [(R)-1,3-Butanediol]
viability at 6 days, 100 µM [1]: 90 to 110%
viability at 6 days, 0.5 mM ([1]; 0.5 mM): 90 to 110%

O=c1c(O)c(-c2ccc(O)c(O)c2)oc2cc(O)cc(O)c12 [Quercetin]
viability at 6 days, 0.1 µM ([1]; 100 nM): 90 to 110%
viability at 6 days, 1 µM ([1]; 1 uM): 90 to 110%

CC(O)CC(=O)[O-].[Na+] (stereo not shown) [Sodium BHB]
Cell viability % DMSO ([2]; 2 mM): = (90% ≥ ≤110%: =)
Treg induction % DMSO ([2]; 2 mM): + (110% > ≤130%: +)
Cell viability % DMSO ([2]; 20 mM): − (<90%: −)
Treg induction % DMSO ([2]; 20 mM): = (90% ≥ ≤110%: =)
